Patent publication US10011874B2, “Androgen receptor mutation” (NOVARTIS AG, priority 2013, dated 2018)
pIC50: −log10 of the molar value.

Tests used:
[1] = tested on: strongly resistant LNCaP clones #1, 15, 19, 24 (AR F877L/T878A); assay: Short-term CellTiter-Glo growth assay, strongly resistant LNCaP clones; format: cell-based; conditions: for growth sensitivity compared with bicalutamide: strongly resistant clones, FIG. 6B
Protocol: (§1) Cells were re-seeded into 150 cm^2 dishes supplemented with the appropriate treatments once each week. Media and compound was replaced for dish 4 once every week. Once resistant clones emerged, media was aspirated from dish 4. […] Cells from control dishes 1-3 were maintained until resistant clones were cryopreserved to maintain a constant culture time for control and experimental lines.
(§2) 1000 cells (spontaneous resistant or engineered lines) were seeded in media supplemented with 10% FCS. For spontaneous resistant clones, increasing concentrations of compounds were added on the day of seeding whereas for engineered lines, compounds were added after 2 d of doxycycline treatment. In all cases growth assays were performed using CellTiter-Glo Luminescent Cell Viability Assay Reagent (Promega, cat# G7573) 7 d following compound treatment.

[2] = tested on: LNCaP lines engineered to express AR-F877L/T878A; assay: Long-term colony formation assay, LNCaP expressing AR-F877L/T878A; format: cell-based; conditions: for growth sensitivity compared with bicalutamide: AR-F877L/T878A LNCaP lines, FIG. 6C colony formation
Protocol: (§3) Codon-optimized cDNAs encoding WT or mutant ARs were synthesized (DNA2.0) and subcloned into the pLKO-TREX-HA-Neo (Invitrogen). […] Virus was harvested 2-3 d after transfection, filtered, and used to infect LNCaP, MyC-CaP and VCaP cell cultures in the presence of 8 μg ml-1 polybrene. Infected cells were maintained in neomycin for 3 weeks. In all cases, at least 1000 independent clones were pooled to generate stable cell lines to avoid clonal variations. Stable cell lines infected with control vectors were generated in parallel for use as experimental controls.
(§4) 5000-7500 cells (spontaneous resistant or engineered lines) were seeded in 6-well plates in media supplemented with 10% FCS. […] Viable colonies were stained after 3-4 week cultures. Following media aspiration, 0.5% crystal violet was added to the wells and left overnight. The next morning, crystal violet solution was removed and wells were carefully washed with ddH2O to remove residual staining solution. The plates were air-dried overnight prior to imaging.

[3] = tested on: CYP2C19; conditions: in humans; cited from earlier work
[4] = tested on: LNCaP control (C1) tumors; assay: In vivo tumorigenesis assay, control C1 xenografts; parameters: species or system castrated male nu/nu mice
Protocol: 10 million LNCaP cells (C1, clone #1) mixed 1:1 with matrigel were injected subcutaneously into the flank of castrated 7-8 week male nu/nu mice. […]. Tumors were measured using calipers and tumor volumes were calculated using length×width/2. Data is expressed as mean±SEM. All animal experiments were performed in compliance with the guidelines of Novartis Biomedical Research Animal Care and Use Committee protocols and regulations.

[5] = randomized clinical trial; cited from earlier work
[6] = tested on: AR pathway activity in strongly resistant clones; assay: Microarray clustering and GSEA of AR pathway activity, strongly resistant clones; format: cell-based; conditions: 10 μM, 24 h
Protocol: (§5) Total RNA was isolated from cells using the Qiagen RNeasy Kit. RNA integrity and purity were assessed with the RNA 6000 Nano LabChip system on a Bioanalyzer 2100 (Agilent Technologies). Generation of labeled cDNA and hybridization to Affymetrix GeneChip Human Genome U133 Plus 2.0 Array (Affymetrix Inc.) was performed using standard protocols as previously described (8). Probesets from the Affymetrix gene expression datasets were normalized using MASS with a trimmed-mean target of 150, and log 2-transformed. Probesets were then filtered for inclusion only if their maximum value over different samples was at least 5. […] This regression was used to generate nominal p-values and regression coeffecients (i.e. fold-changes).

[7] = tested on: CYP2C9; conditions: in humans; cited from earlier work
[8] = tested on: E2F1 target genes DHFR and TK1 in control line; assay: qPCR of E2F1 target genes in control line; format: cell-based; conditions: 10 μM, 24 h
Protocol: (§6) For spontaneous clones: 200 k cells were seeded in 6 well plates in RPMI 1640 supplemented with 10% FCS for 2 d prior to treatment with various compounds for 24 h. Alternatively, for experiments involving androgen-depletion, 200 k cells were seeded and grown in 6 well plates in phenol-free RPMI 1640 supplemented with 10% FCS for 2 d. […] Similar protocols were applied for genetically engineered lines except that cells were pretreated with Dox for at least 2 d prior to treatment with various compounds to allow sufficient transgene expression. Total RNA was extracted using the RNeasy plus mini kit (Qiagen, cat#74136) according to the manufacturer's instructions. 1-2 μg of total RNA was used for cDNA synthesis using a high capacity cDNA reverse transcription kit (Applied Biosystems, cat#4368813). cDNA from each sample was diluted 15-20 fold and real-time was performed in triplicates using gene-specific primers and FastStart Universal Probe Master Mix (Rox) (Roche Applied Science) on an ABI 7900HT series PCR machine. Expression levels were normalized to TBP expression. All analysis was performed using the SDS2.3 software. The following gene-specific primers (Invitrogen) were used: AR (Hs00171172_m1), KLK3 (Hs02576345_m1), NKX3-1 (Hs00171834_m1), TMPRSS2 (Hs01120965_m1), SLC45A3 (Hs00263832_m1), TBP (Hs00427620_m1), DHFR (Hs00758822_s1) and TK1 (Hs01062125_m1).

[9] = tested on: LNCaP cells; assay: Culture of LNCaP cells with MDV3100; format: cell-based; conditions: short-term culture (<1.5 months); FCS+MDV relative to FCS
Protocol: as §1, with “2 million LNCaP cells were seeded into four 150 cm^2 tissue culture dishes in phenol red-free RPMI 1640 media supplemented with 10% FCS. […] Cells were” for “Cells were”

[10] = tested on: AR pathway activity in control and weakly resistant lines; assay: Microarray clustering and GSEA of AR pathway activity, control and weakly resistant lines; format: cell-based; conditions: 10 μM, 24 h
Protocol: as §5

[11] = tested on: CYP3A4; conditions: in humans; cited from earlier work
[12] = tested on: AR localization in strongly resistant clone #1; assay: Nuclear/cytoplasmic fractionation of AR, strongly resistant clone #1; format: cell-based; conditions: 10 μM, 24 h
Protocol: (§7) The next day, cells were harvested with trypsin, centrifuged at 500×g for 5 min, washed with PBS, transferred to 1.5 ml microcentrifuge tubes and pelleted by centrifugation at 500×g for 2-3 min. […] Briefly, the pellet was resuspended in 500 μl of ice-cold Cer I buffer and incubated on ice for 10 min. Following incubation, 27.5 μl of ice-cold Cer II buffer was added, vortexed and incubated for 1 min on ice. The lysate/Cer I/II mixture was vortexed again, centrifuged at 14000×g for 5 min and the cytoplasmic extract (supernatant) was transferred to pre-chilled tubes. The insoluble pellet, which contains nuclei, was resuspended in ice-cold 250 μl NER buffer, vortexed and placed on ice. Sample was vortexed for 15 s every 10 min for a total of 40 min. Following incubation, samples were centrifuged at 14000×g for 10 min. Supernatant, which contains the nuclear extract, was transferred to pre-chilled tubes. These samples were processed for immunoblot analysis as described above.

[13] = tested on: AR target genes KLK3, NKX3-1 and SLC45A3 in strongly resistant clones; assay: qPCR of AR target genes in strongly resistant clones; format: cell-based; conditions: 24 h
Protocol: as §6

[14] = tested on: AR localization in control (C1) LNCaP line; assay: Nuclear/cytoplasmic fractionation of AR, control line C1; format: cell-based; conditions: 10 μM, 24 h
Protocol: as §7

[15] = tested on: W742L and W742C mutant ARs; assay: AR luciferase reporter transactivation assay, W742 mutants; format: cell-based, human; conditions: 10 μM, FIG. 12
Protocol: Reporter assays were performed as follows: 3×10^5 HEK293T cells were seeded in 6-well plates in DMEM supplemented with 10% FCS and 1×NEAA 24 h prior to transfection. Alternatively, 1×10^6 VCaP cells or 3×10^5 PC3 cells were seeded in 6-well plates in appropriate media supplemented with 10% CSS 24 h prior to transfection. […] Cells were collected ˜16 h following treatment and assayed for luciferase activity using the Glomax 96 microplate luminometer (Promega). Firefly activity was normalized to Renilla using the Dual Luciferase Assay reagent (Promega, E1910). All experiments were performed at least three times.

[16] = tested on: LNCaP cells, controls (C1-C3); assay: cells; conditions: Homo sapiens, read-out: aggregate IC50, growth inhibition
Protocol: as §1, §2

[17] = tested on: W742C/T878A mutant AR (KLK3 expression); format: cell-based
Protocol: as §3

[18] = tested on: weakly resistant LNCaP clones #9, 10 and 14; assay: Short-term CellTiter-Glo growth assay, weakly resistant LNCaP clones; format: cell-based; conditions: Homo sapiens, read-out: aggregate IC50, growth inhibition
Protocol: as §1, §2

[19] = tested on: LNCaP lines engineered to express W742C/T878A AR
Protocol: as §3, §4

[20] = tested on: T878A-bearing mutant alleles of AR (KLK3 expression); assay: qPCR of KLK3 in LNCaP engineered to express T878A-bearing mutant ARs; format: cell-based; conditions: 10 μM; 10% FCS; FIG. 15
Protocol: […]. […] Infected cells were maintained in neomycin for 3 weeks.
as §6, with “The following gene-specific primers (Invitrogen) were used: AR (Hs00171172_m1), KLK3 (Hs02576345_m1), NKX3-1 (Hs00171834_m1), TMPRSS2 (Hs01120965_m1), SLC45A3 (Hs00263832_m1), TBP (Hs00427620_m1), DHFR (Hs00758822_s1) and TK1 (Hs01062125_m1).” left out

Q: What does the source list for `CN(C)C(=O)c1cc2cnc(Nc3ccc(N4CCNCC4)cn3)nc2n1C1CCCC1` [LEE011, 7-Cyclopentyl-2-(5-piperazin-1-yl-pyridin-2-ylamino)-7H-pyrrolo[2,3-d]pyrimidine-6-carboxylic acid dimethylamide]?
A: growth sensitivity compared with bicalutamide [1]: as sensitive; growth sensitivity compared with bicalutamide [2]: as sensitive

Q: What does the source list for `CNC(=O)c1ccc(N2C(=S)N(c3ccc(C#N)c(C(F)(F)F)c3)C(=O)C2(C)C)cc1F` [MDV3100, 4-{3-[4-cyano-3-(trifluoromethyl)phenyl]-5,5-dimethyl-4-oxo-2-sulfanylideneimidazolidin-1-yl}-2-fluoro-N-methylbenzamide]?
A: CYP2C19 induction [3]: moderate; body weight during treatment period ([4]; control 1 xenograft mice, 30 mg/kg daily): No significant body weight loss; tumor growth under treatment ([4]; control C1 tumors, 30 mg/kg daily): immediate stasis; tumor take rates, treated vs. vehicle ([4]; control cells C1, 9 of 15 vs. 10 of 15): indistinguishable; incidence of most common adverse drug reactions (asthenia/fatigue, back pain, diarrhea, arthralgia, hot flush etc.) [5]: ≥ 5%; AR pathway activity upon treatment [6]: insignificant change; CYP2C9 induction [7]: moderate; expression of E2F1 target genes DHFR and TK1 [8]: suppressed expression; effect of short-term culture on cell population [9]: population-wide stasis; AR pathway activity upon treatment [10]: reduced AR pathway activity; CYP3A4 induction [11]: strong; nuclear AR localization [12]: not significantly altered; effect on expression of AR target genes KLK3, NKX3-1 and SLC45A3 ([13]; 10 μM, 10% FCS, FIG. 2c): blunted effects; KLK3 expression ([13]; media stripped of androgens (10% CSS), alone or with agonist): significantly enhanced KLK3 expression; nuclear AR localization [14]: significantly impaired

Q: What does the source list for `CC(=O)c1c(C)c2cnc(Nc3ccc(N4CCNCC4)cn3)nc2n(C2CCCC2)c1=O` [PD0332991]?
A: growth sensitivity compared with bicalutamide [1]: as sensitive; growth sensitivity compared with bicalutamide [2]: as sensitive

Q: With `CC(O)(CS(=O)(=O)c1ccc(F)cc1)C(=O)Nc1ccc(C#N)c(C(F)(F)F)c1` (stereo not drawn) [bicalutamide, N-[4-cyano-3-(trifluoromethyl)phenyl]-3-[(4-fluorophenyl)sulfonyl]-2-hydroxy-2-methylpropanamide] as the compound, how does the “agonist/antagonist behaviour in AR reporter assay” value [15] read?
A: antagonist-to-agonist switch

Q: What about the pIC50 [16] of the same compound?
A: 6.00

Q: What about the pIC50 ([1]; Homo sapiens, LNCaP, read-out: aggregate IC50, growth inhibition) of the same compound?
A: 5.30

Q: What about the “agonist/antagonist behaviour on KLK3 expression” value [17] of the same compound?
A: antagonist-to-agonist switch

Q: What about the pIC50 [18] of the same compound?
A: < 5.00

Q: What about the “growth under treatment on expression of W742C/T878A allele” value [19] of the same compound?
A: significantly rescued growth

Q: And the “growth under treatment on expression of F877L/T878A allele” value [2]?
A: remained sensitive

Q: Which “agonist/antagonist behaviour on KLK3 expression” value [20] does the source give for `CC(C)(O)C(=O)Nc1ccc([N+](=O)[O-])c(C(F)(F)F)c1` [hydroxyflutamide] here?
A: antagonist-to-agonist switch
